Results published in patent publication US20230085307A1, “PYRIDAZINONE COMPOUND AND HERBICIDE” (NISSAN CHEMICAL CORPORATION, priority 2019, published 2023).

How the values were obtained:
[1] = system: green foxtail; experiment: Test Example 5: herbicidal effect by foliage application, plastic box (Table 20, symbol G); format: in vivo, green foxtail (Setaria viridis)
Summary of the method: (§1)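 Post-emergence foliar test in sterilized diluvial soil. Compound applied as water-diluted emulsion at a predetermined rate to 14-day-old plants; evaluation at three weeks.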

[2] = system: Japanese bulrush; experiment: Test Example 2: herbicidal activity, application during weed generation under submerged conditions (Table 17, symbol B); format: in vivo, Japanese bulrush (Schoenoplectus juncoides); settings: AAH 320 g/ha; application during weed generation, submerged conditions
Summary of the method: (§2)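 Herbicide emulsion, diluted with water to the chosen amount, is applied onto 4 cm floodwater over alluvial soil where the weeds were co-sown and raised at 25–30° C. Application timing: 1–2 leaves. Assessment: three weeks afterwards.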

[3] = system: rice flat sedge; experiment: Test Example 3: herbicidal effect by foliage application, Wagner pot (Table 18, symbol E); format: in vivo, rice flat sedge (Cyperus iria); settings: 320 g/ha
Summary of the method: (§3)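 Plants were sown in alluvial soil held under 0.1–0.5 cm standing water and grown 14 days in a greenhouse at 25–30 °C. An emulsifiable formulation, water-diluted to the set dose, was then sprayed onto the foliage, and effects were scored three weeks later using previously defined criteria.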

[4] = system: late watergrass; experiment: Test Example 1: herbicidal activity, application before weed generation under submerged conditions (Table 16, symbol A); format: in vivo, late watergrass (Echinochloa oryzicola)
Summary of the method: (§4)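 Alluvial soil was flooded to 4 cm depth, weed seeds were sown mixed and 2.5-leaf rice seedlings were transplanted. On sowing day, the compound's emulsion, diluted in water to a set dose, was applied to the water surface. Plants grew at 25–30 °C and were scored 0–5 after three weeks.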

[5] = system: barnyard grass; experiment: Test Example 3: herbicidal effect by foliage application, Wagner pot (Table 18, symbol H); format: in vivo, barnyard grass (Echinochloa crus-galli); settings: 320 g/ha
Summary of the method: as §3

[6] = system: Chinese sprangletop; experiment: Test Example 3: herbicidal effect by foliage application, Wagner pot (Table 18, symbol D); format: in vivo, chinese sprangletop (Leptochloa chinensis); settings: 320 g/ha
Summary of the method: as §3

[7] = system: late watergrass; experiment: Test Example 2: herbicidal activity, application during weed generation under submerged conditions (Table 17, symbol A); format: in vivo, late watergrass (Echinochloa oryzicola); settings: AAH 320 g/ha; application during weed generation, submerged conditions
Summary of the method: as §2

[8] = system: persian speedwell; experiment: Test Example 5: herbicidal effect by foliage application, plastic box (Table 20, symbol R); format: in vivo, Persian speedwell (Veronica persica)
Summary of the method: as §1

[9] = system: chickweed; experiment: Test Example 5: herbicidal effect by foliage application, plastic box (Table 20, symbol P); format: in vivo, common chickweed (Stellaria media)
Summary of the method: as §1

[10] = system: velvetleaf; experiment: Test Example 5: herbicidal effect by foliage application, plastic box (Table 20, symbol M); format: in vivo, velvetleaf (Abutilon theophrasti)
Summary of the method: as §1

[11] = system: Japanese bulrush; experiment: Test Example 1: herbicidal activity, application before weed generation under submerged conditions (Table 16, symbol B); format: in vivo, Japanese bulrush (Schoenoplectus juncoides)
Summary of the method: as §4

[12] = system: oval-leafed pondweed; experiment: Test Example 2: herbicidal activity, application during weed generation under submerged conditions (Table 17, symbol C); format: in vivo, oval-leafed pondweed (Monochoria vaginalis); settings: AAH 320 g/ha; application during weed generation, submerged conditions
Summary of the method: as §2

[13] = system: lambsquarters; experiment: Test Example 5: herbicidal effect by foliage application, plastic box (Table 20, symbol O); format: in vivo, lambsquarters (Chenopodium album)
Summary of the method: as §1

[14] = system: blackgrass; experiment: Test Example 5: herbicidal effect by foliage application, plastic box (Table 20, symbol J); format: in vivo, blackgrass (Alopecurus myosuroides)
Summary of the method: as §1

[15] = system: redroot pigweed; experiment: Test Example 5: herbicidal effect by foliage application, plastic box (Table 20, symbol N); format: in vivo, redroot pigweed (Amaranthus retroflexus)
Summary of the method: as §1

[16] = system: oval-leafed pondweed; experiment: Test Example 1: herbicidal activity, application before weed generation under submerged conditions (Table 16, symbol C); format: in vivo, oval-leafed pondweed (Monochoria vaginalis)
Summary of the method: as §4

[17] = system: barnyard grass; experiment: Test Example 5: herbicidal effect by foliage application, plastic box (Table 20, symbol H); format: in vivo, barnyard grass (Echinochloa crus-galli)
Summary of the method: as §1

[18] = system: Italian ryegrass; experiment: Test Example 5: herbicidal effect by foliage application, plastic box (Table 20, symbol K); format: in vivo, Italian ryegrass (Lolium multiflorum)
Summary of the method: as §1

[19] = system: wild oat; experiment: Test Example 5: herbicidal effect by foliage application, plastic box (Table 20, symbol I); format: in vivo, wild oat (Avena fatua)
Summary of the method: as §1

[20] = system: southern crabgrass; experiment: Test Example 5: herbicidal effect by foliage application, plastic box (Table 20, symbol F); format: in vivo, southern crabgrass (Digitaria ciliaris)
Summary of the method: as §1

[21] = system: windgrass; experiment: Test Example 5: herbicidal effect by foliage application, plastic box (Table 20, symbol L); format: in vivo, windgrass (Apera spica-venti)
Summary of the method: as §1

[22] = amount of applied herbicide 320 g/ha, foliage application after 14-day growth, evaluated three weeks after application
[23] = amount of applied herbicide 320 g/ha
[24] = foliage application, AAH 320 g/ha, three weeks after application

SMILES: CCCC(=O)Oc1c(C)nn(C)c(=O)c1-c1c(-c2ccc(C#N)cc2)sc2cc(Cl)c(Cl)cc12 [5-050]
- Herbicidal effect by foliage application, G: green foxtail [1, 22]: 0 (Herbicidal rate of 5% or less (almost no effect))
- herbicidal effect rating, B: Japanese bulrush [2]: 2 (Herbicidal rate of 20% or more and less than 40%)
- herbicidal effect on rice flat sedge (E) [3]: 0 (Herbicidal rate of 5% or less (almost no effect))
- Herbicidal effect, A: late watergrass [4, 23]: 3 (Herbicidal rate of 40% or more and less than 70%)
- herbicidal effect on barnyard grass (H) [5]: 2 (Herbicidal rate of 20% or more and less than 40%)
- herbicidal effect on Chinese sprangletop (D) [6]: 4 (Herbicidal rate of 70% or more and less than 90%)
- herbicidal effect rating, A: late watergrass [7]: 0 (Herbicidal rate of 5% or less (almost no effect))
- Herbicidal effect by foliage application, R: persian speedwell [8, 22]: 3 (Herbicidal rate of 40% or more and less than 70%)
- Herbicidal effect by foliage application, P: chickweed [9, 22]: 3 (Herbicidal rate of 40% or more and less than 70%)
- Herbicidal effect by foliage application, M: velvetleaf [10, 22]: 0 (Herbicidal rate of 5% or less (almost no effect))
- Herbicidal effect, B: Japanese bulrush [11, 23]: 0 (Herbicidal rate of 5% or less (almost no effect))
- herbicidal effect rating, C: oval-leafed pondweed [12]: 0 (Herbicidal rate of 5% or less (almost no effect))
- Herbicidal effect by foliage application, O: lambsquarters [13, 22]: 0 (Herbicidal rate of 5% or less (almost no effect))
- Herbicidal effect by foliage application, J: blackgrass [14, 22]: 0 (Herbicidal rate of 5% or less (almost no effect))
- Herbicidal effect by foliage application, N: redroot pigweed [15, 22]: 0 (Herbicidal rate of 5% or less (almost no effect))
- Herbicidal effect, C: oval-leafed pondweed [16, 23]: 0 (Herbicidal rate of 5% or less (almost no effect))
- Herbicidal effect by foliage application, H: barnyard grass [17, 22]: 0 (Herbicidal rate of 5% or less (almost no effect))
- Herbicidal effect by foliage application, K: Italian ryegrass [18, 22]: 0 (Herbicidal rate of 5% or less (almost no effect))
- Herbicidal effect by foliage application, I: wild oat [19, 22]: 0 (Herbicidal rate of 5% or less (almost no effect))
- Herbicidal effect by foliage application, F: southern crabgrass [20, 22]: 0 (Herbicidal rate of 5% or less (almost no effect))
- Herbicidal effect by foliage application, L: windgrass [21, 22]: 0 (Herbicidal rate of 5% or less (almost no effect))

SMILES: CCCC(=O)Oc1c(C)nn(C)c(=O)c1-c1c(-c2ccc([Si](C)(C)C)cc2)sc2ccccc12 [1-154]
- G: green foxtail, herbicidal effect [1, 24]: 0 (Herbicidal rate of 5% or less (almost no effect))
- herbicidal effect rating, B: Japanese bulrush [2]: 2 (Herbicidal rate of 20% or more and less than 40%)
- herbicidal effect on E (rice flat sedge), rating 0-5 [3]: 2 (Herbicidal rate of 20% or more and less than 40%)
- Herbicidal effect on A: late watergrass (grade 0-5) ([4]; 320 g/ha applied herbicide): 2 (Herbicidal rate of 20% or more and less than 40%)
- herbicidal effect on H (barnyard grass), rating 0-5 [5]: 2 (Herbicidal rate of 20% or more and less than 40%)
- herbicidal effect on D (Chinese sprangletop), rating 0-5 [6]: 3 (Herbicidal rate of 40% or more and less than 70%)
- herbicidal effect rating, A: late watergrass [7]: 0 (Herbicidal rate of 5% or less (almost no effect))
- R: persian speedwell, herbicidal effect [8, 24]: 4 (Herbicidal rate of 70% or more and less than 90%)
- P: chickweed, herbicidal effect [9, 24]: 0 (Herbicidal rate of 5% or less (almost no effect))
- M: velvetleaf, herbicidal effect [10, 24]: 0 (Herbicidal rate of 5% or less (almost no effect))
- Herbicidal effect on B: Japanese bulrush (grade 0-5) ([11]; 320 g/ha applied herbicide): 0 (Herbicidal rate of 5% or less (almost no effect))
- herbicidal effect rating, C: oval-leafed pondweed [12]: 0 (Herbicidal rate of 5% or less (almost no effect))
- O: lambsquarters, herbicidal effect [13, 24]: 4 (Herbicidal rate of 70% or more and less than 90%)
- J: blackgrass, herbicidal effect [14, 24]: 0 (Herbicidal rate of 5% or less (almost no effect))
- N: redroot pigweed, herbicidal effect [15, 24]: 3 (Herbicidal rate of 40% or more and less than 70%)
- Herbicidal effect on C: oval-leafed pondweed (grade 0-5) ([16]; 320 g/ha applied herbicide): 0 (Herbicidal rate of 5% or less (almost no effect))
- H: barnyard grass, herbicidal effect [17, 24]: 0 (Herbicidal rate of 5% or less (almost no effect))
- K: Italian ryegrass, herbicidal effect [18, 24]: 0 (Herbicidal rate of 5% or less (almost no effect))
- I: wild oat, herbicidal effect [19, 24]: 0 (Herbicidal rate of 5% or less (almost no effect))
- F: southern crabgrass, herbicidal effect [20, 24]: 0 (Herbicidal rate of 5% or less (almost no effect))
- L: windgrass, herbicidal effect [21, 24]: 0 (Herbicidal rate of 5% or less (almost no effect))
